Active and inactive are the calls of the source. No cut-off for these calls is given here.
target: Matrix metalloproteinase-9 (Homo sapiens, UniProt P14780); assay: Inhibition of MMP9
Sequence (P14780 whole entry): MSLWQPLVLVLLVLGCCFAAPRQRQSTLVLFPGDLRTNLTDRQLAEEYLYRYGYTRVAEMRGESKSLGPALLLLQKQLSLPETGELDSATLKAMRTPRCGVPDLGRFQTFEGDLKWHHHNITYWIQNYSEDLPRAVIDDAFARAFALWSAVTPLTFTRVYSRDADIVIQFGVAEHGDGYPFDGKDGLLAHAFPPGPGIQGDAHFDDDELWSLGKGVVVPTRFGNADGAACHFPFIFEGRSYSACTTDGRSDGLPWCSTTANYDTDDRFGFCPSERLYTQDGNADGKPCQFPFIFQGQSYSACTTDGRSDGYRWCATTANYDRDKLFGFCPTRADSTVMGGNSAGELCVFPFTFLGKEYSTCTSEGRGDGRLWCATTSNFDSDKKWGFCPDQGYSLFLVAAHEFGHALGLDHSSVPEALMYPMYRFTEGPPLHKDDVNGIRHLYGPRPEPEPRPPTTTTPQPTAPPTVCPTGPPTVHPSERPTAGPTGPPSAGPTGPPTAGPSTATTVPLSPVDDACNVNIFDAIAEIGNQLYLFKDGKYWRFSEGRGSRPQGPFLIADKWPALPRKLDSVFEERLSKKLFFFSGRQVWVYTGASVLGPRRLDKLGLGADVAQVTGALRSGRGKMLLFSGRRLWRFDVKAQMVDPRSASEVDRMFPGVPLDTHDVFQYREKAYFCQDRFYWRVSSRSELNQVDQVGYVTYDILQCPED

Structure (SMILES) | IC50 [nM]
CC1(C)NC(=O)N(CC(CS(=O)(=O)c2ccc(Oc3ccc(Cl)cc3)cc2)N(O)C=O)C1=O (configuration not stated) | 37
CC1(C)NC(=O)N(CC(CS(=O)(=O)c2ccc(-c3ccc(OC(F)(F)F)cc3)cc2)N(O)C=O)C1=O (configuration not stated) | 0.34

Continued, values first:

IC50 [nM] | Structure (SMILES)
2 | CC1(C)C[C@@H](C(CS(=O)(=O)c2ccc(Oc3ccc(OC(F)(F)F)cc3)cc2)N(O)C=O)N(S(C)(=O)=O)C1 (some centres not stated)
0.5 | CC1(C)OC[C@H](C(CS(=O)(=O)c2ccc(Oc3ccc(OC(F)(F)F)cc3)cc2)N(O)C=O)O1 (some centres not stated)
0.49 | O=CN(O)C(CS(=O)(=O)c1ccc(Oc2ccc(OC(F)(F)F)cc2)cc1)C(CO)CO (configuration not stated)
1.1 | CCC1(CC)OC[C@H](C(CS(=O)(=O)c2ccc(Oc3ccc(OC(F)(F)F)cc3)cc2)N(O)C=O)O1 (some centres not stated)
1.1 | C[C@@H]1OC(C)(C)O[C@H]1C(CS(=O)(=O)c1ccc(Oc2ccc(OC(F)(F)F)cc2)cc1)N(O)C=O (some centres not stated)

test system: SVR; assay: Antiproliferative activity against mouse SVR cells at 20 ug/ml after 48 hrs by Coulter counting method; type: functional, cell-based

Structure (SMILES) | Activity
CN(C)c1ccc(/C=C/C(=O)c2ccco2)cc1 | Active
Cc1cc(C)n(-c2nc(-c3ccccc3)cc(-c3ccccc3)n2)n1 | Active
Brc1ccc(/C=N/Nc2nc(-c3ccccc3)cc(-c3ccccc3)n2)cc1 | Active
Cc1cccc(-c2nnc(-c3cccc(NC(=O)c4ccco4)c3)o2)c1 | Active
COc1cc(/C=C/C(=O)CC(=O)/C=C/c2ccc(O)c(OC)c2)ccc1O | Active
